Drawing on patent US11242333B2, “Inhibitors of plasma kallikrein” (Kalvista Pharmaceuticals Limited, priority 2013, dated 2022), this text covers IC50 for four compounds.

Test [1] addresses Human plasma kallikrein (Homo sapiens (Human), UniProt P03952). Description: Determination of the IC50 for plasma kallikrein. It counts as biochemical. Conditions: 37° C., fluorogenic substrate H-DPro-Phe-Arg-AFC; read-out: IC50 (human PKal). As to the method: Determination of the IC50 for plasma kallikrein
Plasma kallikrein inhibitory activity in vitro was determined using standard published methods (see e.g. Johansen et al., Int. J. Tiss. Reac. 1986, 8, 185; Shori et al., Biochem. Pharmacol., 1992, 43, 1209; Stürzebecher et al., Biol. Chem. Hoppe-Seyler, 1992, 373, 1025). Human plasma kallikrein (Protogen) was incubated at 37° C. with the fluorogenic substrate H-DPro-Phe-Arg-AFC and various concentrations of the test compound. Residual enzyme activity (initial rate of reaction) was determined by measuring the change in […] at 410 nm and the IC50 value for the test compound was determined.

In test [2] the target is Human KLK1 (Homo sapiens (Human), UniProt P06870). Briefly: Determination of the IC50 for KLK1. The format is biochemical. The following applies: 37° C., fluorogenic substrate H-DVal-Leu-Arg-AFC. As for the experimental part: Determination of the IC50 for KLK1
KLK1 inhibitory activity in vitro was determined using standard published methods (see e.g. Johansen et al., Int. J. Tiss. Reac. 1986, 8, 185; Shori et al., Biochem. Pharmacol., 1992, 43, 1209; Stürzebecher et al., Biol. Chem. Hoppe-Seyler, 1992, 373, 1025). Human KLK1 (Callbiochem) was incubated at 37° C. with the fluorogenic substrate H-DVal-Leu-Arg-AFC and various concentrations of the test compound. Residual enzyme activity (initial rate of reaction) was determined by measuring the change in optical absorbance at 410 nm and the IC50 value for the test compound was determined.

Chain of Human plasma kallikrein (P03952 391-638): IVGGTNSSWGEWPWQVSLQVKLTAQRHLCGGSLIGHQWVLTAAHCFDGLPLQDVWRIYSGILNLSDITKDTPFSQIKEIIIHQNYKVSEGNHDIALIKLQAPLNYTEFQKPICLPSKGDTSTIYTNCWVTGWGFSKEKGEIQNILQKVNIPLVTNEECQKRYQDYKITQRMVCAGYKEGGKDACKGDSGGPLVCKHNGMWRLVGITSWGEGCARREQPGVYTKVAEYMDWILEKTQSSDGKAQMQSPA
Chain of Human plasma kallikrein (P03952 20-390 partner): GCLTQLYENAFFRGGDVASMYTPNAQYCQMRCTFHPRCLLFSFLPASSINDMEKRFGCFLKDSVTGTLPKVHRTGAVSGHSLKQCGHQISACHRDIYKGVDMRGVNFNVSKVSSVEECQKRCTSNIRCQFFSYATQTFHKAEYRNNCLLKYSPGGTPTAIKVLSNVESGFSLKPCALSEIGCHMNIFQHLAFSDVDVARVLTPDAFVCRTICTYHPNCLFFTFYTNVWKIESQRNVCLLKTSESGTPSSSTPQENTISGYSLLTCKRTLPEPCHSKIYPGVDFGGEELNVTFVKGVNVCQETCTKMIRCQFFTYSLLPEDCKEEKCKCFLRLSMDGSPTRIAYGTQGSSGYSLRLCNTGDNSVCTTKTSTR
Chain of Human KLK1 (P06870 25-262): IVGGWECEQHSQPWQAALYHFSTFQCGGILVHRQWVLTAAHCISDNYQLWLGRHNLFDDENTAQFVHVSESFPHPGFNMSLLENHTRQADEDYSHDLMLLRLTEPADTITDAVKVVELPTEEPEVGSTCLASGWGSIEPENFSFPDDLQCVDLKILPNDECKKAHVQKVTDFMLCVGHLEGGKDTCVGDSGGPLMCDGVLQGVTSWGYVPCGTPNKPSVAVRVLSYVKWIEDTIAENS

What is called IC50 is the midpoint of a concentration-inhibition curve. In the case of `Cc1cnn(Cc2ccc(Cc3cncc(C(=O)NCc4ccc5c(N)nccc5c4)c3)cc2)c1` [Example 1], the IC50 in test [1] was determined as 3.86 nM. On the same count and under the same terms, to `Cc1cnn(Cc2ccc(Cc3cncc(C(=O)NCc4cnc5[nH]ccc5c4)c3)cc2)c1` [Example 2, 5-({4-[(4-Methylpyrazol-1-yl)methyl]phenyl}methyl)-N-{7H-pyrrolo[2,3-b]pyridin-5-ylmethyl}pyridine-3-carboxamide] belongs 216 nM. Consider `Cc1cnn(Cc2ccc(Cc3ccnc(C(=O)NCc4cnc5[nH]ccc5c4)c3)cc2)c1` [Example 4, 4-({4-[(4-Methylpyrazol-1-yl)methyl]phenyl}methyl)-N-{7H-pyrrolo[2,3-b]pyridin-5-ylmethyl}pyridine-2-carboxamide], for which the half-maximal inhibitory concentration (IC50) in test [1] turned out to be 6610 nM.

Turning to `O=C(NCc1cnc2[nH]ccc2c1)c1ccc(=O)n(Cc2ccc(Cn3ccccc3=O)cc2)c1` [Example 6, 6-Oxo-1-({4-[(2-oxopyridin-1-yl)methyl]phenyl}methyl)-N-{7H-pyrrolo[2,3-b]pyridin-5-ylmethyl}pyridine-3-carboxamide], the IC50 in test [2] worked out at 27800 nM; in test [1], 580 nM.
